Where “and” joins values, the source holds several entries; their conditions need not be identical. Identical values can stand only once. Like-named read-outs stand apart in the source and are kept apart here. Square brackets hold non-standard residues; d marks the D form. Peptide text beside a SMILES is read from it. Tle = CC(C)(C)[C@H](N)C(=O)O
Columns and labels:
plasma DP IV = biological target: T1, plasma DP IV (Rattus norvegicus, UniProt P14740); experiment: Plasma DP IV activity after intravasal and oral administration in Wistar rats; assay type: in vivo; conditions: for inhibition at 100 mg/kg: rat, Wistar rats
T1 construct: The assay mixture consisted of 80 μl reagent and 20 μl plasma; from tissue; host or cells: plasma of Wistar rats
T1 sequence (P14740 37-767 limits assumed): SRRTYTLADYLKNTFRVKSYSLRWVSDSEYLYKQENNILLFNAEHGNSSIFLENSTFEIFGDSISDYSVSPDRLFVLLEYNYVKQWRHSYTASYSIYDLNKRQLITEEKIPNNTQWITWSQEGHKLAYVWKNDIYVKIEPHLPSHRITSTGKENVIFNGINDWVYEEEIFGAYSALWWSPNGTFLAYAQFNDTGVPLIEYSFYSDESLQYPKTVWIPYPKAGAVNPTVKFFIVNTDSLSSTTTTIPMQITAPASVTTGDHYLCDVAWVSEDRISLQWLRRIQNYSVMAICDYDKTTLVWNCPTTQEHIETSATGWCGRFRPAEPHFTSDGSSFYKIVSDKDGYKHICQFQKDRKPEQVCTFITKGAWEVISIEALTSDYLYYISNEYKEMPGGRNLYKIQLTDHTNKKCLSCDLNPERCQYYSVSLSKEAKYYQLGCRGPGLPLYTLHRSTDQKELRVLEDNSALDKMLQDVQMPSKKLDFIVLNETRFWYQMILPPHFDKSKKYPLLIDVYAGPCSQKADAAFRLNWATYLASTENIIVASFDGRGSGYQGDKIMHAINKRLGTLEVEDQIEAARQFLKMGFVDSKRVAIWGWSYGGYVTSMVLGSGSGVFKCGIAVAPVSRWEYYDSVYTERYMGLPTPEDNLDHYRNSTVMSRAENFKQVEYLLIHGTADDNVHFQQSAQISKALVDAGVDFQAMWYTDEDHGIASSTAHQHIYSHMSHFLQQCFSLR
Experimental: Rats with intact catheter function were given the test substances intravasal (intraarterial) or oral, respectively, in random order (N=3 Wistar rats in each group). As positive control, […]. isoleucine thiazolidine*fumarate were administered intravasal.
After overnight fasting, 100 μl samples of heparinized arterial blood were collected at −30, −5, and 0 min into ice-cooled Eppendorf tubes (see below). The test substances were dissolved freshly in 1.0 ml saline (0.154 mol/l) and were given at 0 min either oral via a feeding tube ([…], 75 mm; Fine Science Tools, Heidelberg, Germany) or intravasal. For the intravasal route, the catheter was immediately flushed with 30 μl saline and an additional 1 ml of saline was given orally via the feeding tube.
Arterial blood samples were taken thereafter at 5, 10 (only in a limited number of experiments), 20, 40, 60 and 120 min from the carotid catheter of the conscious unrestrained rats and were always given into ice cooled Eppendorf tubes (Eppendorf-Netheler-Hinz, Hamburg, Germany) filled with 10 μl 1 M citrate buffer pH 3.0 for prevention of further hydrolysis of tripeptides by plasma DP IV activity. Eppendorf tubes were centrifuged immediately (12000 rpm for 2 min, Hettich Zentrifuge EBA 12, Tuttlingen; Germany): The plasma fractions were store on ice until analysis or were deeply frozen at −20 ° C. until analysis.
Plasma DP IV activity: The assay mixture consisted of 80 μl reagent and 20 μl plasma. Kinetic measurements of the formation of the yellow product 4-nitroaniline were performed at 390 nm for 1 min at 30° C. after 2 min pre-incubation at the same temperature. The activity was expressed as arbitrary units [AU] and DP IV activity [mU/ml].
The absolute values of plasma DP IV activity, the relative change of plasma DP IV activity and the time and extent of maximal inhibition were calculated. Data presentation included the presentation of area under the curve (AUC), which was used for evaluation of extent of inhibition of plasma DP IV activity during the two hours of observation. AUC was calculated using the trapezoidal rule.
To compare relative changes of parameters under the conditions of different initial values of DP IV activity an uniform standardised mean (values) was set up at the beginning of the test (see Figures and Tables).
Statistical evaluations were performed with Microsoft Excel® 97. All variables are presented as mean and standard deviation (SD). Treatment groups were compared by Student's t-test, within-group changes by paired t-test. Two-tailed values of p<0.05 were considered significant.

purified porcine DP IV = purified porcine DP IV (Sus scrofa, UniProt P22411); experiment: Determination of IC50-values, Gly-Pro-pNA cleavage by DP IV; assay type: biochemical; conditions: Gly-Pro-pNA 0.4 mM, HEPES pH 7.6, 30° C.; read-out: IC50
Sequence of purified porcine DP IV (P22411 whole entry): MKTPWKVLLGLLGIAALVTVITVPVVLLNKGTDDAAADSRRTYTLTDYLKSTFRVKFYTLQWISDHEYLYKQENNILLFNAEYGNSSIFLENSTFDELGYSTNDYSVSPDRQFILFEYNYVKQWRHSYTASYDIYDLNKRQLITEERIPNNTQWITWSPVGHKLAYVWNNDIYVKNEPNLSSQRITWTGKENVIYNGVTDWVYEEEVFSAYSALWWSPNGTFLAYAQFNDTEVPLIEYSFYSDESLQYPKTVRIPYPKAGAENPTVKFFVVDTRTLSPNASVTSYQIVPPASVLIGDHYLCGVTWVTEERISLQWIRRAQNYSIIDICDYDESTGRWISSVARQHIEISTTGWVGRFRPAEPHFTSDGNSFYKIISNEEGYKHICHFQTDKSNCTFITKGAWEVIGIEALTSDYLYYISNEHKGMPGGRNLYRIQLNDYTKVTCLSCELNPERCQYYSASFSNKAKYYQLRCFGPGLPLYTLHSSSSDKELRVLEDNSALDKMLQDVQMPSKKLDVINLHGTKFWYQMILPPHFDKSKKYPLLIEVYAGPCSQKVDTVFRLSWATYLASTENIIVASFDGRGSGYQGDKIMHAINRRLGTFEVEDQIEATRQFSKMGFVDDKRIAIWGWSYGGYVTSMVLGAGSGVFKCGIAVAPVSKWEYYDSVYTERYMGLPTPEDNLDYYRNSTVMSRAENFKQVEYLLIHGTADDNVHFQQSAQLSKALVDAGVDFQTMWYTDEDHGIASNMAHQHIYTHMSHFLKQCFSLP
Experimental: 100 μl inhibitor stock solution were mixed with 100 μl buffer (HEPES pH 7.6) and 50 μl substrate (Gly-Pro-pNA, final concentration 0.4 mM) and preincubated at 30° C. Reaction was started by addition of 20 μl purified porcine DP IV. Formation of the product pNA was measured at 405 nm over 10 min using the HTS 7000 Plus plate reader (Perkin Elmer) and slopes were calculated. The final inhibitor concentrations ranged between 1 mM and 30 nM.
For calculation of IC50-values GraFit 4.0.13 (Erithacus Software) was used.

[1] = oral 100 mg/kg b.w., individual animals, 100 mg/kg

CC[C@H](C)[C@H](NC(=O)[C@@H]1CCCN1C(=O)[C@@H](N)C(C)(C)C)C(=O)O [t-butyl-Gly-Pro-Ile] (H-[Tle]-Pro-Ile-OH; N-terminus and C-terminus assumed)
time period over which plasma DP IV decreased slowly (plasma DP IV; oral 100 mg/kg b.w.): 40 min
Plasma DP IV activity (plasma DP IV; oral 100 mg/kg b.w., 2.5 min, Mean): 17.25 mU/ml
Plasma DP IV activity (plasma DP IV; oral 100 mg/kg b.w., 2.5 min, Standardized Mean): 17.08 mU/ml
Plasma DP IV activity (plasma DP IV; oral 100 mg/kg b.w., 2.5 min, individual animals, 100 mg/kg): 20.61 mU/ml and 9.21 mU/ml and 21.93 mU/ml
Plasma DP IV activity (plasma DP IV; oral 100 mg/kg b.w., 5 min, Mean): 19.15 mU/ml
Plasma DP IV activity (plasma DP IV; oral 100 mg/kg b.w., 5 min, Standardized Mean): 18.98 mU/ml
Plasma DP IV activity (plasma DP IV; oral 100 mg/kg b.w., 5 min, individual animals, 100 mg/kg): 23.68 mU/ml and 13.16 mU/ml and 20.61 mU/ml
Plasma DP IV activity (plasma DP IV; oral 100 mg/kg b.w., 7.5 min, Mean): 17.25 mU/ml
Plasma DP IV activity (plasma DP IV; oral 100 mg/kg b.w., 7.5 min, Standardized Mean): 17.08 mU/ml
Plasma DP IV activity (plasma DP IV; oral 100 mg/kg b.w., 7.5 min, individual animals, 100 mg/kg): 21.05 mU/ml and 12.28 mU/ml and 18.42 mU/ml
Plasma DP IV activity (plasma DP IV; oral 100 mg/kg b.w., 10 min, Mean): 21.64 mU/ml
Plasma DP IV activity (plasma DP IV; oral 100 mg/kg b.w., 10 min, Standardized Mean): 21.46 mU/ml
Plasma DP IV activity (plasma DP IV; oral 100 mg/kg b.w., 10 min, individual animals, 100 mg/kg): 21.93 mU/ml and 25.88 mU/ml and 17.11 mU/ml
Plasma DP IV activity (plasma DP IV; oral 100 mg/kg b.w., 15 min, Mean): 21.05 mU/ml
Plasma DP IV activity (plasma DP IV; oral 100 mg/kg b.w., 15 min, Standardized Mean): 20.88 mU/ml
Plasma DP IV activity (plasma DP IV; oral 100 mg/kg b.w., 15 min, individual animals, 100 mg/kg): 29.39 mU/ml and 15.79 mU/ml and 17.98 mU/ml
Plasma DP IV activity (plasma DP IV; oral 100 mg/kg b.w., 20 min, Mean): 17.98 mU/ml
Plasma DP IV activity (plasma DP IV; oral 100 mg/kg b.w., 20 min, Standardized Mean): 17.81 mU/ml
Plasma DP IV activity (plasma DP IV; oral 100 mg/kg b.w., 20 min, individual animals, 100 mg/kg): 25.00 mU/ml and 10.97 mU/ml
Plasma DP IV activity (plasma DP IV; oral 100 mg/kg b.w., 40 min, Mean): 19.30 mU/ml
Plasma DP IV activity (plasma DP IV; oral 100 mg/kg b.w., 40 min, Standardized Mean): 19.12 mU/ml
Plasma DP IV activity (plasma DP IV; oral 100 mg/kg b.w., 40 min, individual animals, 100 mg/kg): 21.49 mU/ml and 8.77 mU/ml and 27.63 mU/ml
Plasma DP IV activity (plasma DP IV; oral 100 mg/kg b.w., 60 min, Mean): 19.44 mU/ml
Plasma DP IV activity (plasma DP IV; oral 100 mg/kg b.w., 60 min, Standardized Mean): 19.27 mU/ml
Plasma DP IV activity (plasma DP IV; oral 100 mg/kg b.w., 60 min, individual animals, 100 mg/kg): 21.93 mU/ml (2×) and 14.47 mU/ml
Plasma DP IV activity (plasma DP IV; oral 100 mg/kg b.w., 120 min, Mean): 20.91 mU/ml
Plasma DP IV activity (plasma DP IV; oral 100 mg/kg b.w., 120 min, Standardized Mean): 20.73 mU/ml
Plasma DP IV activity (plasma DP IV; oral 100 mg/kg b.w., 120 min, individual animals, 100 mg/kg): 16.23 mU/ml and 23.25 mU/ml (2×)
DP IV-AUC (plasma DP IV; oral 100 mg/kg b.w., Mean): −51.5 AU · min
Drop of plasma DP IV activity (plasma DP IV; oral 100 mg/kg b.w., Mean): 10.53 mU/ml
DP IV-AUC (plasma DP IV; [1]): 155.2 AU · min and −961.1 AU · min and 651.3 AU · min
Drop of plasma DP IV activity (plasma DP IV; [1]): 6.58 mU/ml and 23.25 mU/ml and 1.75 mU/ml
DP IV-AUC0-120 min (plasma DP IV; oral 100 mg/kg b.w., p<0.05 vs. intra-vasal): −336±162 mU·min·ml^−1
inhibition at 100 mg/kg (plasma DP IV; iv, i.v., 100 mg/kg, read-out: DPIV inhibition at tmax, i.v.): 71%
inhibition at 100 mg/kg (plasma DP IV; po, p.o., 100 mg/kg, read-out: DPIV inhibition at tmax, p.o.): 28%
IC50 (purified porcine DP IV): 9.34 µM
